Measured values reported in US11974987B2, “Monoacylglycerol lipase modulators for use in autism spectrum disorders” (Janssen Pharmaceutica NV, priority 2021, dated 2024).
Like-named read-outs stand apart in the source and are kept apart here. Blank lines part the entries; values can stand above or below the compound they belong to.

Legend:
C57BL/6J mice = assay: Three-chamber sociability test in C57BL/6J mice (control); assay type: in vivo, mouse; conditions: C57BL/6 mice, 3 mg/kg p.o., 60 minutes before testing
Experimental: (§1) Biological Example 3. The behavioral effects of the compound of Example 78 were evaluated using an animal model of autism in a sociability assay after administration of the compound. The sociability assay was conducted using C57BL/6J mice (commerically available from the Jackon Laboratory, Bar Harbor, ME) as control, and BTBR T^+ Itpr3^tf/mice (referred herein as “BTBR”)(commerically available from the Jackon Laboratory, Bar Harbor, ME) as an autism model.
(§2) Thirty (30) C57BL/6J female mice and thirty (30) BTBR female mice (7-8 weeks old) were used in Biological Example 3. Upon arrival, mice were group-housed (4-5/cage) and acclimated for at least 5 days prior to commencing studies. Animals were maintained on a 12 hr light/dark cycle with room temperature maintained at 22±2° C. and approximately 50% humidity and had access to food and water ad libitum until the day before the experiment.
(§3) The two solutions listed in Table 4 were formulated fresh daily for p.o. administration. Both solutions comprise 20% 2-Hydroxypropyl-β-cyclodextrin (HP-3-CD). The solution containing Example 78 is in a concentration of 0.3 mg/mL.
(§4) Each type of mice is divided into two different treatment groups: those orally administered a Vehicle solution, and those orally administered with a solution of Example 78, both prepared according to Table 4 above. The mice were randomly assigned to treatment groups according to Table 5 below. Mice were administered the test article 60 minutes prior to testing.
(§5) Experiments were carried out in a gray plastic arena with two clear dividers creating three chambers (each 19 cm×45 cm). […] Two wire cup-like containers were placed in the corner of either end of the arena (right chamber and left chamber). These containers were used to house either stimulus or familiar mice. The arena was placed in a room with dim lighting (˜10 lux). Animals were brought into the room to acclimate for at least 1 hour prior to beginning experiment.
Initially, empty wire cups are placed into the right and left chambers. Each of the C57BL/6J or BTBR mouse was placed into the center chamber and allowed to habituate for 10 minutes to the arena. After the 10-minute habituation and with the animal still in the arena, a first stimulus mouse, which was subsequently considered a familiar mouse, was placed inside one of the wire cups in either the right or left chamber. In the other wire cup, a small object was placed. […]
During the latter 10-minute period, activity of each mouse was recorded and analyzed using the Noldus EthoVision™ software, which is a video tracking software that tracks and analyzes the behavior, movement. The following data were record and scored using activity of each mouse for: […]
Data were plotted and analyzed using GraphPad Prism (version 9.1.1) software. […]

BTBR mice = assay: Three-chamber sociability test in BTBR mice (autism model); assay type: in vivo, mouse; conditions: 3 mg/kg p.o., 60 minutes before testing
Experimental: as §1
The BTBR mice used in Biological Example 3 was derived from the inbred strain BTBR (Black and Tan BRachyury) that carried the mutations a^t (nonagouti; black and tan), Itpr3^tf (inositol 1,4,5-triphosphate receptor 3; tufted), and T (brachyury). […] (Wahlsten D, 2003 Brain Res). […] (McFarlane H G, 2008, Gen, Brain Behav; Moy S S, 2007, Behav Br Res, Scattoni M L, 2008, PLos). This strain of mice contains the Trem2S148E allele—a naturally occurring variant at position 48351151-48351152 on Chr 17 (rs108080490 and rs107649577; Ensembl GRCm38.p6). This TC to GA transition results in a serine to glutamic acid substitution at amino acid 148 (S148E).
as §2, §3, §4, §5
Initially, empty wire cups are placed into the right and left chambers. Each of the C57BL/6J or BTBR mouse was placed into the center chamber and allowed to habituate for 10 minutes to the arena. After the 10-minute habituation and with the animal still in the arena, a first stimulus mouse, which was subsequently considered a familiar mouse, was placed inside one of the wire cups in either the right or left chamber. In the other wire cup, a small object was placed. The placement of the stimulus mouse and small object switched sides across subjects. The C57BL/6J or BTBR mouse was allowed 10 minutes to explore all three chambers. A second stimulus mouse was subsequently placed in the wire cup in the opposite chamber. The first stimulus mouse was considered as familiar mouse. Again, the C57BL/6J or BTBR mouse was allowed 10 minutes to explore all three chambers.
During the latter 10-minute period, activity of each mouse was recorded and analyzed using the Noldus EthoVision™ software, which is a video tracking software that tracks and analyzes the behavior, movement. The following data were record and scored using activity of each mouse for:
(1) Duration and number of direct/active contacts between the test mouse and both wire cups (stimulus vs. familiar); Active contact was defined as mouse stretching towards wire cup within a 3-5 mm area around the cup; and […]

[1] = target: human MGL from HeLa cells (Homo sapiens (Human), UniProt Q99685); assay: in vitro MGL activity assay ([glycerol-1,3-3H]-oleoyl glycerol cleavage); assay type: biochemical
Sequence of human MGL from HeLa cells (Q99685 whole entry): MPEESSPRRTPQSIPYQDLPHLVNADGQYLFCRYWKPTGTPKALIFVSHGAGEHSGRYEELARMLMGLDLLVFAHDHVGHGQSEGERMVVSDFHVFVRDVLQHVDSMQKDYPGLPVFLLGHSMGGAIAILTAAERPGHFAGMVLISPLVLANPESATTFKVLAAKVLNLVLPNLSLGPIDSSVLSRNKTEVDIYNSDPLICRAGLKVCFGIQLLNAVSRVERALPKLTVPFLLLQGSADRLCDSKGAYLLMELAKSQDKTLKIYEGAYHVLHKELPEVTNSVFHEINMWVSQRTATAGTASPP
Experimental: The assay consists of combining endogenously expressed MGL from HeLa cells with test compounds, adding [glycerol-1,3-^3H]-oleoyl glycerol, incubating for one hour, and then measuring the amount of cleaved [1,3-^3H]-glycerol that passes through an activated carbon filter. The amount of cleaved, tritiated glycerol passing through the carbon filter is proportional to the activity of the MGL enzyme in a particular well/test condition.
Standard conditions for this assay combine 300 nM [Glycerol-1,3-^3H]-oleoyl glycerol with human MGL from HeLa cells and test compounds for one hour, after which the reaction is filtered through activated carbon and tritium is measured in the flow through. […] MGL is the predominant hydrolase in HeLa cells/cell homogenates.

[2] = 300 nM [Glycerol-1,3-3H]-oleoyl glycerol, one hour, read-out: MGL IC50

Structure (SMILES): CC(C)(C)c1cccc([C@H]2[C@@H]3CN(C(=O)[C@H]4C[C@]5(COC(=O)N5)C4)C[C@@H]32)c1 [Example 78, (2s,4S)-2-((1R,5S,6S)-6-(3-(tert-Butyl)phenyl)-3-azabicyclo[3.1.0]hexane-3-carbonyl)-7-oxa-5-azaspiro[3.4]octan-6-one]
- Mean Diff., amount of time spent exploring familiar mouse chamber and stimulus mouse chamber (Bonferroni's multiple comparisons test) (C57BL/6J mice): −23.01
- Mean Diff., amount of time spent interacting with familiar mouse or stimulus mouse (Bonferroni's multiple comparisons test) (C57BL/6J mice): 2.873
- Mean Diff., number of entries into familiar mouse chamber and stimulus mouse chamber (Bonferroni's multiple comparisons test) (C57BL/6J mice): 8.133
- Mean Diff., number of interactions with familiar mouse or stimulus mouse (Bonferroni's multiple comparisons test) (C57BL/6J mice): 37.87
- Mean Diff., amount of time spent exploring familiar mouse chamber and stimulus mouse chamber (Bonferroni's multiple comparisons test) (BTBR mice): −40.36
- Mean Diff., amount of time spent interacting with familiar mouse or stimulus mouse (Bonferroni's multiple comparisons test) (BTBR mice): −5.578
- Mean Diff., number of entries into familiar mouse chamber and stimulus mouse chamber (Bonferroni's multiple comparisons test) (BTBR mice): 4.133
- Mean Diff., number of interactions with familiar mouse or stimulus mouse (Bonferroni's multiple comparisons test) (BTBR mice): −47.07
- preference to familiar mouse over stimulus mouse (FIGS. 1C and 1D) (BTBR mice): did not show preference to familiar mouse over stimulus mouse
- social interaction (interest in social novelty) as compared to BTBR mice treated with placebo (BTBR mice): improved social interaction

Structure (SMILES): O=C1CC[C@]2(C[C@H](C(=O)N3CCC4(c5cccc(OC(F)(F)F)c5)CC4C3)C2)N1 (mixture of isomers) [Example 52, (rac)-(2r,4s)-2-(6-(3-(Trifluoromethoxy)phenyl)-3-azabicyclo[4.1.0]heptane-3-carbonyl)-5-azaspiro[3.4]octan-6-one]
- IC50 [1]: 4.8 nM

Structure (SMILES): O=C1CC[C@]2(C[C@H](C(=O)N3CC[C@]4(c5cccc(OC(F)(F)F)c5)C[C@@H]4C3)C2)N1 (stereo in doubt) [Example 120, (2r,4*R)-2-((1*S,6*R)-6-(3-(Trifluoromethoxy)phenyl)-3-azabicyclo[4.1.0]heptane-3-carbonyl)-5-azaspiro[3.4]octan-6-one]
- IC50 [1, 2]: 23 nM

Structure (SMILES): CC(C)c1cccc([C@H]2[C@@H]3CN(C(=O)[C@H]4C[C@]5(COC(=O)N5)C4)C[C@@H]32)c1 [Example 84, (2s,4S)-2-((1R,5S,6S)-6-(3-Isopropylphenyl)-3-azabicyclo[3.1.0]hexane-3-carbonyl)-7-oxa-5-azaspiro[3.4]octan-6-one]
- IC50 [1, 2]: 5.5 nM

Structure (SMILES): O=C1CC[C@]2(C[C@H](C(=O)N3CC[C@@]4(c5cccc(OC(F)(F)F)c5)C[C@H]4C3)C2)N1 (stereo in doubt) [Example 119, (2r,4*S)-2-((1*R,6*S)-6-(3-(Trifluoromethoxy)phenyl)-3-azabicyclo[4.1.0]heptane-3-carbonyl)-5-azaspiro[3.4]octan-6-one]
- IC50 [1, 2]: 5.2 nM

Other lines, results leading:

- IC50 [1, 2]: 42 nM
Structure (SMILES): O=C1CC[C@]2(C[C@H](C(=O)N3CC[C@@]4(c5ccc(OC(F)(F)F)cc5)C[C@H]4C3)C2)N1 (stereo in doubt) [Example 121, (2r,4*S)-2-((1*R,6*S)-6-(4-(Trifluoromethoxy)phenyl)-3-azabicyclo[4.1.0]heptane-3-carbonyl)-5-azaspiro[3.4]octan-6-one]

- IC50 [1, 2]: 10 nM
Structure (SMILES): O=C1CC[C@]2(C[C@H](C(=O)N3CCC4(c5ccc(OC(F)(F)F)cc5)CC4C3)C2)N1 (mixture of isomers) [Example 55, (rac)-(2r,4s)-2-(6-(4-(Trifluoromethoxy)phenyl)-3-azabicyclo[4.1.0]heptane-3-carbonyl)-5-azaspiro[3.4]octan-6-one]

- IC50 [1, 2]: 18 nM
Structure (SMILES): O=C1CC[C@]2(C[C@H](C(=O)N3CCC4(c5ccc(C(F)(F)F)cc5)CC4C3)C2)N1 (mixture of isomers) [Example 59, (rac)-(2r,4s)-2-(6-(4-(Trifluoromethyl)phenyl)-3-azabicyclo[4.1.0]heptane-3-carbonyl)-5-azaspiro[3.4]octan-6-one]

- IC50 [1, 2]: 2.8 nM
Structure (SMILES): Cc1cccc([C@]23CCN(C(=O)[C@H]4C[C@]5(COC(=O)N5)C4)C[C@H]2C3)c1 (relative stereo) [Example 44, (2s,4*R)-2-((1*S,6*R)-6-(m-Tolyl)-3-azabicyclo[4.1.0]heptane-3-carbonyl)-7-oxa-5-azaspiro[3.4]octan-6-one]

- IC50 [1, 2]: 12 nM
Structure (SMILES): O=C1CC[C@]2(C[C@H](C(=O)N3CC[C@]4(c5ccc(OC(F)(F)F)cc5)C[C@@H]4C3)C2)N1 (stereo in doubt) [Example 122, (2r,4*R)-2-((1*S,6*R)-6-(4-(Trifluoromethoxy)phenyl)-3-azabicyclo[4.1.0]heptane-3-carbonyl)-5-azaspiro[3.4]octan-6-one]
